Molecules are shown by their SMILES.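 Tested at 5 concentrations; 48 h exposure; 96-well plates; endpoints linearly interpolated, else capped at highest concentration. GI50 = concentration required for 50% inhibition of growth. TGI: concentration producing complete growth inhibition.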

Among the test systems are SK-MEL-5 melanoma; HS 578T breast; A549 NSCLC; SF-268 CNS; ACHN renal; SN12C renal; RPMI-8226 leukemia; MOLT-4 leukemia; HCC-2998 colon; RXF 393 renal.
Common to all, as to assay: NCI tumour cell line growth inhibition, 48 h

`Cc1ccc(-n2nnc3c(sc4ccccc43)c2=O)cc1`: the GI50 in the assay with SK-MEL-5 melanoma was 28.1 µM; in the assay with HS 578T breast it was 2.18 µM; in the assay with A549 NSCLC, 5.23 µM; with SF-268 CNS, 4.62 µM; in the assay with ACHN renal, 4.17 µM; in the assay with SN12C renal it was more than 100 µM. Also, the GI50 in the assay with RPMI-8226 leukemia was 24 µM; in the assay with MOLT-4 leukemia, more than 100 µM; with HCC-2998 colon, 68.7 µM; in the assay with RXF 393 renal, 16.8 µM. Besides, the TGI was more than 100 µM in the assay with SK-MEL-5 melanoma; 8.71 µM in the assay with HS 578T breast; more than 100 µM in the assay on A549 NSCLC; 71 µM with SF-268 CNS; more than 100 µM with ACHN renal; more than 100 µM in the assay on SN12C renal. The TGI in the assay on RPMI-8226 leukemia, in the assay with MOLT-4 leukemia, in the assay on HCC-2998 colon and in the assay on RXF 393 renal was more than 100 µM throughout.

As for `Cc1ccc(-c2c3c(N)nc(-c4ccncc4)nc3nc3c2c(C)nn3-c2ccccc2)cc1`, the GI50 was 10.2 µM in the assay with SK-MEL-5 melanoma; 5.92 µM in the assay on HS 578T breast; 2.62 µM with A549 NSCLC; 8.27 µM with SF-268 CNS; more than 37.5 µM in the assay on ACHN renal; 2.58 µM in the assay on SN12C renal. Moreover, the GI50 in the assay on RPMI-8226 leukemia is 18.6 µM; in the assay on MOLT-4 leukemia, more than 37.5 µM; in the assay with HCC-2998 colon, more than 37.5 µM; in the assay with RXF 393 renal, 3.88 µM. Further, the TGI in the assay on SK-MEL-5 melanoma, in the assay on HS 578T breast, in the assay with A549 NSCLC, in the assay with SF-268 CNS, in the assay with ACHN renal and in the assay on SN12C renal was more than 37.5 µM in each case. Moreover, the TGI with RPMI-8226 leukemia is more than 37.5 µM; in the assay with MOLT-4 leukemia it was more than 37.5 µM; in the assay with HCC-2998 colon it was more than 37.5 µM; in the assay on RXF 393 renal it was 33 µM.

On to `N#Cc1ccc(N2Cc3cc(Cl)ccc3OC3=C2C(=O)N(Cc2ccc(F)cc2)C3=O)cc1`, for which the GI50 was 1.26 µM in the assay on SK-MEL-5 melanoma; 1.02 µM in the assay on HS 578T breast; 7.34 µM in the assay with A549 NSCLC; 0.658 µM in the assay on SF-268 CNS; 0.479 µM with ACHN renal; 0.567 µM in the assay with SN12C renal. In addition, the GI50 in the assay on RPMI-8226 leukemia was 0.252 µM; in the assay on MOLT-4 leukemia it was 0.291 µM; with HCC-2998 colon, 0.973 µM; with RXF 393 renal, 0.481 µM. The TGI in the assay on SK-MEL-5 melanoma is 2.94 µM; with HS 578T breast, 13.6 µM; in the assay with A549 NSCLC, 23.2 µM; in the assay with SF-268 CNS, 1.66 µM; in the assay on ACHN renal it was 0.913 µM; with SN12C renal, 1.19 µM. The TGI stood at 0.814 µM in the assay on RPMI-8226 leukemia, 1.26 µM in the assay on MOLT-4 leukemia, 2.89 µM with HCC-2998 colon and 0.943 µM with RXF 393 renal.

As for `CCc1ccc(Oc2nccc(-c3c(-c4ccc(F)cc4)ncn3C3CCNCC3)n2)cc1`, the GI50 in the assay on SK-MEL-5 melanoma is 4.22 µM; in the assay with HS 578T breast it was 7.01 µM; in the assay with A549 NSCLC, 5.18 µM; in the assay on SF-268 CNS, 6.76 µM; with ACHN renal, 4.77 µM; in the assay with SN12C renal it was 5.19 µM. In addition, the GI50 in the assay on RPMI-8226 leukemia is 5.77 µM; in the assay on MOLT-4 leukemia, 7.15 µM; in the assay with HCC-2998 colon, 3.94 µM; in the assay on RXF 393 renal, 3.99 µM. Also, the TGI in the assay on SK-MEL-5 melanoma was determined as 7.71 µM; in the assay with HS 578T breast, 17.1 µM; in the assay on A549 NSCLC, 13.3 µM; in the assay on SF-268 CNS, 15.4 µM; in the assay on ACHN renal, 13.6 µM; in the assay with SN12C renal, 13.9 µM. Further, the TGI in the assay with RPMI-8226 leukemia worked out at 14.9 µM; with MOLT-4 leukemia, 15.8 µM; in the assay with HCC-2998 colon it was 7.61 µM; in the assay on RXF 393 renal, 7.49 µM.

As to `COc1ccc(Oc2nc(Nc3ccc(N4CCOCC4)cc3)ncc2NC(=O)Nc2cc(OC)cc(OC)c2)cc1`, the GI50 with SK-MEL-5 melanoma was 1.11 µM; in the assay on HS 578T breast, 8 µM; in the assay with A549 NSCLC, 1.86 µM; in the assay on SF-268 CNS it was 2.64 µM; in the assay with ACHN renal, 4.23 µM; with SN12C renal, 1.17 µM. The GI50 in the assay with RPMI-8226 leukemia is 5.21 µM; in the assay with MOLT-4 leukemia it was 10.6 µM; with HCC-2998 colon, 2.11 µM; in the assay on RXF 393 renal, 1.54 µM. Besides, the TGI in the assay with SK-MEL-5 melanoma is 3.79 µM; in the assay with HS 578T breast it was more than 33.3 µM; in the assay on A549 NSCLC, 12.5 µM; with SF-268 CNS, more than 33.3 µM; in the assay on ACHN renal, 20.4 µM; in the assay with SN12C renal, 4.5 µM. Besides, the TGI is 32.6 µM in the assay on RPMI-8226 leukemia, more than 33.3 µM in the assay on MOLT-4 leukemia, 7.16 µM in the assay with HCC-2998 colon and 5.8 µM in the assay with RXF 393 renal.

Regarding `COC(=O)c1c2c(c(C)[n+]([O-])c1C)C(=O)C=C(NCc1ccc(Br)cc1)C2=O`, the GI50 is 0.201 µM in the assay with SK-MEL-5 melanoma; 2.4 µM in the assay on HS 578T breast; 0.705 µM with A549 NSCLC; 1.22 µM with SF-268 CNS; 0.575 µM with ACHN renal; 0.581 µM with SN12C renal. The GI50 with RPMI-8226 leukemia is 1.47 µM; with MOLT-4 leukemia it was 0.87 µM; in the assay on HCC-2998 colon, 0.491 µM; in the assay on RXF 393 renal, 1.09 µM. The TGI in the assay on SK-MEL-5 melanoma was found to be 0.435 µM; with HS 578T breast, 8.05 µM; in the assay with A549 NSCLC, 2.74 µM; with SF-268 CNS it was 3.35 µM; in the assay with ACHN renal, 2.1 µM; in the assay on SN12C renal, 1.74 µM. The TGI is 5.1 µM in the assay on RPMI-8226 leukemia, 3.99 µM in the assay with MOLT-4 leukemia, 1.9 µM in the assay on HCC-2998 colon and 2.54 µM in the assay with RXF 393 renal.

`O=[N+]([O-])c1ccc(Oc2cccc(C(F)(F)F)c2)c([N+](=O)[O-])c1`: the GI50 with SK-MEL-5 melanoma is 2.53 µM; with HS 578T breast, 3.99 µM; with A549 NSCLC it was 4.56 µM; in the assay with SF-268 CNS, 3.17 µM; in the assay with ACHN renal, 3.39 µM; in the assay with SN12C renal, 3.63 µM. For the same molecule, the GI50 with RPMI-8226 leukemia was 2.6 µM; in the assay on MOLT-4 leukemia it was 0.344 µM; in the assay with HCC-2998 colon, 2.3 µM; in the assay on RXF 393 renal it was 2.61 µM. Further, the TGI in the assay on SK-MEL-5 melanoma stood at 7.72 µM; in the assay with HS 578T breast, 32 µM; in the assay on A549 NSCLC, 16.5 µM; in the assay with SF-268 CNS, 12.2 µM; in the assay with ACHN renal, 13.8 µM; with SN12C renal, 13.4 µM. Further, the TGI came to 7.62 µM with RPMI-8226 leukemia, 2.92 µM in the assay with MOLT-4 leukemia, 6.51 µM in the assay with HCC-2998 colon and 7.87 µM in the assay with RXF 393 renal.
